Assay results published in patent publication US7523563B2, “Process for preparing certain hydrohalide metal complex compounds having a specific coarse structure” (Verla-Pharm Arzneimittelfabrik Apotheker H.J.v. Ehrlich …, priority 2005, dated 2009).
Values joined by “and” are separate entries in the source; they are usually repeats but may differ in a detail not shown here. Equal values may be shown once.

Tests used:
[1] = Particle size distribution, comparative sieve analysis (Hosokawa Alpine air jet sieve); type: physicochemical
Source text: The particle size distribution of granular magnesium L-aspartate hydrochloride prepared by the process according to the invention was compared with a finely powdered magnesium L-aspartate hydrochloride prepared by a standard process (disclosed in DE 32 38 118 A1).

[2] = Flow time and flowability, conical flow funnel, 2.9.16 Method Ph. Eur.; type: physicochemical; conditions: 100 g, time for whole sample to flow out of the funnel, two samples each; hydrochloride
Method: The flowability of granular magnesium L-aspartate hydrochloride prepared by the process according to the invention was compared with a finely powdered magnesium L-aspartate hydrochloride prepared by a standard process (disclosed in DE 32 38 118 A1). The test arrangement consisted of a conical flow funnel with a height of 22.5 cm, an upper internal diameter of 7.3 cm and a lower internal diameter of 8.2 mm. The test was carried out by the 2.9.16 Method, Ph. Eur., 4th edition, main volume 2002, as follows. 100 g portions of material were put into the funnel. Opening of the funnel orifice was followed by assessment of the flowability, and the time for the whole sample to flow out of the funnel was determined. Two samples were measured in each case.

[3] = Dissolving properties, time until dissolution complete in water; type: physicochemical; conditions: 10 g in 250 ml of water, stirring 20 revolutions per min; hydrochloride
Method: The dissolving properties of granular magnesium L-aspartate hydrochloride prepared by the process according to the invention were compared with a finely powdered magnesium L-aspartate hydrochloride prepared by a standard process (disclosed in DE 32 38 118 A1). The test arrangement consisted of a glass beaker with stirring bar which was adjusted to 20 revolutions per min. 250 ml of water were introduced and then 10 g of test material were added with the stirrer motor running. The time until dissolution was complete was measured.

[4] = Water uptake capacity or hygroscopicity, desiccator at 75% relative humidity; type: physicochemical; conditions: for percentage increase in weight: hydrochloride
Source text: The hygroscopicity of granular magnesium L-aspartate hydrochloride prepared by the process according to the invention was compared with a finely powdered magnesium L-aspartate hydrochloride prepared by a standard process (disclosed in DE 32 38 118 A1). The test arrangement consisted of a desiccator which was adjusted to a relative humidity of 75% with a saturated sodium chloride solution. In each case a defined amount of sample was weighed out and the sample dish was placed in the desiccator. The percentage increase in weight of the weighed amount was determined after 2, 4, 5 and 20 hours.

[5] = Apparent volume of the final product; type: physicochemical
Method: A product with a very favourable apparent volume can be achieved in the process according to the invention for preparing the granular hydrohalide of the complex compound of relevance here. The apparent volume [volume of the uncompressed product (ml)/100 g of the product] is preferably in a range from 150 to 180 ml/100 g, with a particularly preferred apparent volume being about 170 ml/100 g.

[6] = Particle size distribution of the final product of Example 1; type: physicochemical
[7] = background statement; cited from earlier work
[8] = listed as granular magnesium L-aspartate hydrochloride, hydrochloride
[9] = sieve 63.0 μm, listed as process according to the present invention, hydrochloride
[10] = sieve 90.0 μm, listed as process according to the present invention, hydrochloride
[11] = sieve 150.0 μm, listed as process according to the present invention, hydrochloride
[12] = listed as finely powdered magnesium L-aspartate hydrochloride, hydrochloride
[13] = sieve 63.0 μm, listed as standard process, hydrochloride
[14] = sieve 90.0 μm, listed as standard process, hydrochloride
[15] = sieve 150.0 μm, listed as standard process, hydrochloride

Cl.N[C@@H](CC(=O)[O-])C(=O)[O-].[Mg+2] [According to the invention, magnesium L-aspartate hydrochloride]
average particle size (d50) [1, 8]: 250.8 μm | maximum particle size (dmax) [1, 8]: 448.7 μm | minimum particle size (dmin) [1, 8]: 48.0 μm | 1 − Q ([1]; sieve 0 μm (receiver)): 100.0 %-R | Q ([1]; sieve 0 μm (receiver)): 0.0 %-D | q ([1]; sieve 0 μm (receiver), listed as process according to the present invention, hydrochloride): 0.2 %-B | 1 − Q [1, 9]: 99.8 %-R | Q [1, 9]: 0.2 %-D | q [1, 9]: 0.6 %-B | 1 − Q [1, 10]: 99.2 %-R | Q [1, 10]: 0.8 %-D | q [1, 10]: 10.2 %-B | 1 − Q [1, 11]: 89.0 %-R | Q [1, 11]: 11.0 %-D | q [1, 11]: 61.4 %-B | 1 − Q ([1]; sieve 212.0 μm): 27.6 %-R | Q ([1]; sieve 212.0 μm): 72.4 %-D | q ([1]; sieve 212.0 μm): 18.4 %-B | 1 − Q ([1]; sieve 315.0 μm): 9.2 %-R | Q ([1]; sieve 315.0 μm): 90.8 %-D | q ([1]; sieve 315.0 μm): 5.4 %-B | 1 − Q ([1]; sieve 400.0 μm): 3.8 %-R | Q ([1]; sieve 400.0 μm): 96.2 %-D | q ([1]; sieve 400.0 μm): 3.0 %-B | 1 − Q ([1]; sieve 500.0 μm): 0.8 %-R | Q ([1]; sieve 500.0 μm): 99.2 %-D | q ([1]; sieve 500.0 μm): 0.8 %-B | Flow time [2]: 10 s | Dissolving time [3]: 3 min and 2 min | hygroscopicity compared with a finely powdered product according to the prior art ([4]; 2 to 20 hours): distinctly reduced | percentage increase in weight ([4]; testing time 2 h): 0.18% and 0.16% | percentage increase in weight ([4]; testing time 4 h): 0.33% and 0.30% | percentage increase in weight ([4]; testing time 5 h): 0.43% and 0.40% | percentage increase in weight ([4]; testing time 20 h): 1.74% and 1.63%

Cl.N[C@@H](CC(=O)[O-])C(=O)[O-].[Mg+2] [Example 1, magnesium L-aspartate hydrochloride]
apparent volume [volume of the uncompressed product (ml)/100 g of the product] [5]: 170 ml/100 g | particle size distribution, fraction of particles ([6]; 100-140 μm): 19.48% | particle size distribution, fraction of particles ([6]; 140-250 μm): 57.84% | particle size distribution, fraction of particles ([6]; 250-315 μm): 10.81% | particle size distribution, fraction of particles ([6]; 315-400 μm): 4.78% | particle size distribution, fraction of particles ([6]; 400-500 μm): 0.90% | particle size distribution, fraction of particles ([6]; <100 μm): 6.19%

Cl.N[C@@H](CC(=O)[O-])C(=O)[O-].[Mg+2] [Magnesium L-aspartate hydrochloride]
humidity at which the substance liquefies [7]: more than 50%

Cl.N[C@@H](CC(=O)[O-])C(=O)[O-].[Mg+2] [Standard, magnesium L-aspartate hydrochloride, reference compound]
average particle size (d50) [1, 12]: 54.9 μm | maximum particle size (dmax) [1, 12]: 260.0 μm | minimum particle size (dmin) [1, 12]: 0.7 μm | 1 − Q ([1]; sieve 0 μm (receiver)): 100.0 %-R | Q ([1]; sieve 0 μm (receiver)): 0.0 %-D | q ([1]; sieve 0 μm (receiver), listed as standard process, hydrochloride): 55.4 %-B | 1 − Q [1, 13]: 44.6 %-R | Q [1, 13]: 55.4 %-D | q [1, 13]: 23.8 %-B | 1 − Q [1, 14]: 20.8 %-R | Q [1, 14]: 79.2 %-D | q [1, 14]: 15.6 %-B | 1 − Q [1, 15]: 5.2 %-R | Q [1, 15]: 94.8 %-D | q [1, 15]: 5.2 %-B | Dissolving time [3]: 7 min | percentage increase in weight ([4]; testing time 2 h): 0.35% and 0.30% | percentage increase in weight ([4]; testing time 4 h): 0.63% and 0.55% | percentage increase in weight ([4]; testing time 5 h): 0.72% and 0.71% | percentage increase in weight ([4]; testing time 20 h): 3.06% and 2.70%
